From US4839374A, “4-((Bicyclic heterocyclyl)-methyl and -hetero)-piperidines” (Janssen Pharmaceutica, N.V., priority 1987, dated 1989)
Like-named read-outs stand apart in the source and are kept apart here.

What was measured:
[1] = test system: effects of serotonin; test: Antagonistic activity on the effects of serotonin in the gastric lesion test (lesions induced by compound 48/80); type: in vivo, rats of a Wistar inbred strain; details: Rattus norvegicus, po, read-out: gastric lesion test ED50
In short: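 Fasted male Wistar rats (220–250 g) dosed orally with compound; 1 h later 2.5 mg/kg s.c. H1 antagonist, then compound 48/80 i.v. Stomachs examined 4 h afterwards for distension and glandular lesions (scored 0 to +++); ED50 is the oral dose (mg/kg) abolishing both in 50% of rats.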

[2] = test system: compound 48/80-induced lethality; test: Protection of rats from compound 48/80-induced lethality; type: in vivo, rats of an inbred Wistar strain; details: Rattus norvegicus, 4 h, read-out: Compound 48/80 lethality test in rats ED50, s.c. or p.o. 1 h before compound 48/80 0.5 mg/kg i.v.; protection of 50% of animals, survival after 4 hours
In short: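 Male inbred Wistar rats (240-260 g), starved overnight, dosed subcutaneously or orally with compound or 0.9% NaCl before compound 48/80 challenge. Survival at 4 hours counted as protection. ED50 in mg/kg is the dose protecting 50% of animals from lethality.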

[3] = test system: effects of serotonin; details: rats, compound 48/80; known serotonin-antagonists; cited from earlier work
[4] = compound 48/80 1 mg/kg i.v., distension and lesions of stomach completely absent in 50% of rats

SMILES	ED50 [1, 4]	ED50 [2]	ED50 [1]	prevention of cyanosis of ears and extremities, lesions in the glandular area of the stomach and abnormal gastric distension [3]
COc1ncccc1C(=O)NCCN1CCC(Cc2nc3ccccc3n2Cc2ccc(F)cc2)CC1 [Compound 438, N-[2-[4-[[1-[(4-fluorophenyl)methyl]-1H-benzimidazol-2-yl]methyl]-1-piperidinyl]ethyl]-2-methoxy-3-pyridinecarboxamide]	0.16 mg/kg	0.08 mg/kg		
O=C(NCCN1CCC(Cc2nc3ccccc3n2Cc2ccc(F)cc2)CC1)C(=O)c1cccs1 [Compound 439, N[2-[;b 4-[[1-[(4-fluorophenyl)methyl]-1H-benzimidazol-2-yl]methyl]-1-piperidinyl]ethyl]-α-oxo-2-thiopheneacetamide]	0.31 mg/kg	0.16 mg/kg		
CCCC(=O)c1ccc(OC)c(C(=O)NCCN2CCC(Cc3nc4ccccc4n3Cc3ccc(F)cc3)CC2)c1 [Compound 441, N-[2-[4-[[1-[(4-fluorophenyl)methyl]-1H-benzimidazol-2-yl]methyl]-1-piperidinyl]ethyl]-2-methoxy-5-(1-oxobutyl)benzamide]	0.16 mg/kg	0.08 mg/kg		
O=C(NCCN1CCC(Cc2nc3ccccc3n2Cc2ccc(F)cc2)CC1)c1cccs1 [Compound 443, N-[2-[4-[[1-[(4-fluorophenyl)methyl]-1H-benzimidazol-2-yl]methyl]-1-piperidinyl]ethyl]-2-thiophenecarboxamide]	0.16 mg/kg	0.02 mg/kg		
CN(C)C(=O)NCCN1CCC(Cc2nc3cccnc3n2Cc2ccc(F)cc2)CC1 [Compound 448, N'-[2-[4-[[3-[(4-fluorophenyl)methyl]-3H-imidazo[4,5-b]pyridin-2-yl]methyl]-1-piperidinyl]ethyl]-N,N-dimethylurea]	0.16 mg/kg	0.08 mg/kg		
Fc1ccc(Cn2c(CC3CCN(CCNc4ncc[nH]4)CC3)nc3ccccc32)cc1 [Compound 453, 4-[[1-[(4-fluorophenyl)methyl]-1H-benzimidazol-2-yl]methyl]-N-(1H-imidazol-2-yl)-1-piperidineethanamine]	0.02 mg/kg	0.04 mg/kg		
CCOC(=O)c1csc(NCCN2CCC(Cc3nc4ccccc4n3Cc3ccc(F)cc3)CC2)n1 [Compound 455, ethyl 2-[(2-[4-[(1-[(4-fluorophenyl)methyl]-1H-benzimidazol-2-yl]methyl]-1-piperidinyl]ethyl]amino]-4-thiazolecarboxylate]	0.63 mg/kg	0.04 mg/kg		
Cc1csc(NCCN2CCC(Cc3nc4ccccc4n3Cc3ccc(F)cc3)CC2)n1 [Compound 456, 4-[(1-[(4-fluorophenyl)methyl]-1H-benzimidazol-2-yl]methyl]-N-(4-methyl-2-thiazolyl)-1-piperidineethanamine]	0.63 mg/kg	0.01 mg/kg		
O=c1c2ccccc2[nH]c(=S)n1CCN1CCC(Cc2nc3ccccc3n2Cc2ccc(F)cc2)CC1 [Compound 460, 3-[2-[4-[[1-[(4-fluorophenyl)methyl]-1H-benzimidazol-2-yl]methyl]-1-piperidinyl]ethyl]-2,3-dihydro-2-thioxo-4(1H)-quinazolinone]	0.63 mg/kg	0.08 mg/kg		
O=c1c2ccccc2[nH]c(=S)n1CCN1CCC(Cc2nc3ccccc3n2Cc2ccco2)CC1 [Compound 461, 3-[2-[4-[[1-(2-furanylmethyl)-1H-benzimidazol-2-yl]methyl]-1-piperidinyl]ethyl]-2,3-dihydro-2-thioxo-4(1H)-quinazolinone]		0.08 mg/kg	0.08 mg/kg	
CNc1ccccc1C(=O)NCCN1CCC(Cc2nc3ccccc3n2Cc2ccc(F)cc2)CC1 [Compound 467, N-[2-[4-[[1-[(4-fluorophenyl)methyl]-1H-benzimidazol-2-yl]methyl]-1-piperidinyl]ethyl]-2-(methylamino)benzamide]		0.04 mg/kg	0.08 mg/kg	
Nc1ccccc1C(=O)NCCN1CCC(Cc2nc3ccccc3n2Cc2ccc(F)cc2)CC1 [Compound 468, 2-amino-N-[2-[4-[[1-[(4-fluorophenyl)methyl]-1H-benzimidazol-2-yl]methyl]-1-piperidinyl]ethyl]benzamide]	0.63 mg/kg	0.02 mg/kg		
Nc1ccccc1C(=O)NCCN1CCC(Cc2nc3ccncc3n2Cc2ccc(F)cc2)CC1 [Compound 477, 2-amino-N-[2-[4-[[3-[(4-fluorophenyl)methyl]-3H-imidazo[4,5-c]pyridin-2-yl]-methyl]-1-piperidinyl]-ethyl]benzamide]	0.63 mg/kg	0.02 mg/kg		
Nc1ccccc1C(=O)NCCN1CCC(Cc2nc3ccccc3n2Cc2cccs2)CC1 [Compound 478, 2-amino-N-[2-[4-[[1-(2-thienylmethyl)-1H-benzimidazol-2-yl]methyl]-1-piperidinyl]ethyl]benzamide]		0.02 mg/kg	0.04 mg/kg	
O=c1[nH]c2ccccc2c(=O)n1CCCCN1CCC(Cc2nc3ccccc3n2Cc2ccc(F)cc2)CC1 [Compound 489, 3-[4-[4-[[1-[(4-fluorophenyl)methyl]-1H-benzimidazol-2-yl]methyl]-1-piperidinyl]butyl]-2,4(1H,3H)-quinazolinedione]	0.63 mg/kg	0.08 mg/kg		
Fc1ccc(Cn2c(CC3CCN(CCn4c(=S)[nH]c5ccccc54)CC3)nc3ccccc32)cc1 [Compound 493, 1-[2-[4-[[1-[(4-fluorophenyl)methyl]-1H-benzimidazol-2-yl]methyl]-1-piperidinyl]ethyl]-1,3-dihydro-2H-benzimidazole-2-thione]		0.08 mg/kg	0.04 mg/kg	

SMILES	ED50 [1, 4]	ED50 [2]	ED50 [1]	prevention of cyanosis of ears and extremities, lesions in the glandular area of the stomach and abnormal gastric distension [3]
Fc1ccc(Cn2c(CC3CCN(CCn4c(S)nc5cncnc54)CC3)nc3ccccc32)cc1 [Compound 495, 9-[2-[4-[[1-[(4-fluorophenyl)methyl]-1H-benzimidazol-2-yl]methyl]-1-piperidinyl]ethyl]-9H-purine-8-thiol]	0.16 mg/kg	0.04 mg/kg		
Cc1nc2n(c(=O)c1CCN1CCC(Cc3nc4ccccc4n3Cc3ccc(F)cc3)CC1)CCCC2 [Compound 498, 3-[2-[4-[[1-[(4-fluorophenyl)methyl]-1H-benzimidazol-2-yl]methyl]-1-piperidinyl]ethyl]-6,7,8,9-tetrahydro-2-methyl-4H-pyrido[1,2-a]pyrimidin-4-one]	0.16 mg/kg	0.08 mg/kg		
Fc1ccc(Cn2c(CC3CCN(CCNc4ccccn4)CC3)nc3ccccc32)cc1 [Compound 499]	0.01 mg/kg	0.04 mg/kg		
Oc1nc2cncnc2n1CCN1CCC(Cc2nc3ccccc3n2Cc2ccc(F)cc2)CC1 [Compound 502, 9-[2-[4-[[1-[(4-fluorophenyl)methyl]-1H-benzimidazol-2-yl]methyl]-1-piperidinyl]ethyl]-9H-purin-8-ol]	0.16 mg/kg	0.08 mg/kg		
Oc1ccc(CCN2CCC(Cc3nc4ccccc4n3Cc3ccc(F)cc3)CC2)cc1 [Compound 504, 4-[2-[4-[[1-[(4-fluorophenyl)methyl]-1H-benzimidazol-2-yl]methyl]-1-piperidinyl]ethyl]phenol]	0.63 mg/kg	0.08 mg/kg		
Oc1ccc(CCN2CCC(Cc3nc4ccc(O)cc4n3Cc3ccc(F)cc3)CC2)cc1 [Compound 505, 1-[(4-fluorophenyl)methyl]-2-[[1-[2-(4-hydroxyphenyl)ethyl]-4-piperidinyl]-methyl]-1H-benzimidazol-6-ol]		0.04 mg/kg	0.04 mg/kg	
O=C(c1ccccc1)N(CCN1CCC(Cc2nc3ccccc3n2Cc2ccc(F)cc2)CC1)c1ncccn1 [Compound 508, N-[2-[4-[[1-[(4-fluorophenyl)methyl]-1H-benzimidazol-2-yl]methyl]-1-piperidinyl]ethyl]-N-(2-pyrimidinyl)benzamide]	0.16 mg/kg	0.08 mg/kg		
CC(=O)N(CCN1CCC(Cc2nc3ccccc3n2Cc2ccc(F)cc2)CC1)c1ncccn1 [Compound 510, N-[2-[4-[[1-[(4-fluorophenyl)methyl]-1H-benzimidazol-2-yl]methyl]-1-piperidinyl]ethyl]-N-(2-pyrimidinyl)acetamide]	0.16 mg/kg	0.02 mg/kg		
CN(CCN1CCC(Cc2nc3ccccc3n2Cc2ccc(F)cc2)CC1)c1ncccn1 [Compound 514, N-[2-[4-[[1-[(4-fluorophenyl)methyl]-1H-benzimidazol-2-yl]methyl]-1-piperidinyl]ethyl]-N-methyl-2-pyrimidinamine]	0.63 mg/kg	0.02 mg/kg		
COc1ccc(CCN2CCC(Cc3nc4ccccc4n3Cc3ccsc3)CC2)cc1 [Compound 523, 2-[[1-[2-(4-methoxyphenyl)ethyl]-4-piperidinyl]methyl]-1-(3-thienylmethyl)-1H-benzimidazole]	0.31 mg/kg	0.04 mg/kg		
CN(C)CCCSc1ccccc1NC(=O)/C=C/c1ccccc1 [cinanserin]				prevent completely
CN1CCC(=C2c3ccccc3C=Cc3ccccc32)CC1 [cyproheptadine]				prevent completely
CN1C[C@H](CNC(=O)OCc2ccccc2)C[C@@H]2c3cccc4c3c(cn4C)C[C@H]21 [metergoline]				prevent completely
CC[C@@H](CO)NC(=O)[C@@H]1C=C2c3cccc4c3c(cn4C)C[C@H]2N(C)C1 [methysergide]				prevent completely
CN1CCN2c3ccccc3Cc3ccccc3C2C1 (stereo not shown) [mianserin]				prevent completely
NC(=O)C1(N2CCCCC2)CCN(CCCC(=O)c2ccc(F)cc2)CC1 [pipamperone]				prevent completely
